Experimental data published in ChEMBL document CHEMBL6071190, “Discovery of BAY 2666605, a Molecular Glue for PDE3A and SLFN12” (ACS Med Chem Lett, 2024).
pEC50, pIC50: −log10 of the molar value.

Key:
HeLa = assay: Antiproliferative activity against human HeLa cells incubated for 72 hrs by Cell Titer Glo luminescence assay; format: functional, cell-based
SK-MEL3 = assay: Antiproliferative activity against human SK-MEL3 cells incubated for 72 hrs by Cell Titer Glo luminescence assay; format: functional, cell-based; conditions: SK-MEL3, 72 h
[1] = Metabolic stability in rat hepatocytes assessed as bioavailability at 1 uM measured upto 90 mins by LC-MS/MS analysis; format: ADME, Hepatocyte
[2] = Selectivity ratio of IC50 for inhibition of full-length human PDE3A expressed in Sf9 cells to EC50 for antiproliferative activity against human HeLa cells
[3] = biological target: cGMP-inhibited 3',5'-cyclic phosphodiesterase 3A (Homo sapiens, UniProt Q14432); assay: Inhibition of human full-length PDE3A expressed in Sf9 cells using [8-3H]adenosine 3', 5'-cyclic phosphate as substrate incubated for 60 mins by microbeta scintillation counting method
cGMP-inhibited 3',5'-cyclic phosphodiesterase 3A, sequence (Q14432 whole entry): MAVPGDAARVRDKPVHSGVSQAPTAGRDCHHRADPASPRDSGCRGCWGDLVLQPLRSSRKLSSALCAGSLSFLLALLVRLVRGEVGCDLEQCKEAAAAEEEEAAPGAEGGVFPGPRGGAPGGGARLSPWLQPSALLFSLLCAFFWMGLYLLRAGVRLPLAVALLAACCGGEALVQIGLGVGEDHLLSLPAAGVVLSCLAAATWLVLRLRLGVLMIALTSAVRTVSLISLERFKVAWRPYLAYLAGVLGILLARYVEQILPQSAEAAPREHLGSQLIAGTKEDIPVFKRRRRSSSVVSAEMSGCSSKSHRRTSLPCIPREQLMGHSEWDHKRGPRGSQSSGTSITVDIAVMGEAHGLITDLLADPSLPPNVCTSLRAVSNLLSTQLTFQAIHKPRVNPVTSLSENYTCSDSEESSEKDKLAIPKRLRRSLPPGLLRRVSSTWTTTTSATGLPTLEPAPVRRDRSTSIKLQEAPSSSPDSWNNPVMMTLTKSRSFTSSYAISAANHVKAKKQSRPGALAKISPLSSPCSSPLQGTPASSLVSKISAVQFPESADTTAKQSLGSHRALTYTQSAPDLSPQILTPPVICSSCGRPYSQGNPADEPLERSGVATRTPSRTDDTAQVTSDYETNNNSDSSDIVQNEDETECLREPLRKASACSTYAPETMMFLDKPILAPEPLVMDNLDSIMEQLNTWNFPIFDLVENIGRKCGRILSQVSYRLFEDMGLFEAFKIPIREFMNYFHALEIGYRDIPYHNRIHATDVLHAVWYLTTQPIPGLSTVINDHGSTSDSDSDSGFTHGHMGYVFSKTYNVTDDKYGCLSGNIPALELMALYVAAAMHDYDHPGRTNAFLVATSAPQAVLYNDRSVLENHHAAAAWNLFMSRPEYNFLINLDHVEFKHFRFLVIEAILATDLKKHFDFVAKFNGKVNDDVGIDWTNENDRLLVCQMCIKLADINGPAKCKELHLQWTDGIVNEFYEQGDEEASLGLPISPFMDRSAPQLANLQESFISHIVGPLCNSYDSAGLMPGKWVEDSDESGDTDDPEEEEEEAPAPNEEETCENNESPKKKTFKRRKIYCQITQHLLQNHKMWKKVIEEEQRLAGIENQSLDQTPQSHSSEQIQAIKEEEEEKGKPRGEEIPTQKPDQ

[4] = Metabolic stability in mouse hepatocytes assessed as bioavailability at 1 uM measured upto 90 mins by LC-MS/MS analysis; format: ADME, Hepatocyte
[5] = Clearance in mouse blood; format: ADME, tissue-based
[6] = Metabolic stability in human hepatocytes assessed as bioavailability at 1 uM measured upto 90 mins by LC-MS/MS analysis; format: ADME, Hepatocyte
[7] = Metabolic stability in dog hepatocytes assessed as bioavailability at 1 uM measured upto 90 mins by LC-MS/MS analysis; format: ADME, Canis lupus familiaris, Hepatocyte

Compound	pEC50 (HeLa)	pEC50 (SK-MEL3)	predicted hepatic bioavailability (Fh) from hepatocyte stability at 1 µM [1] [%]	Ratio IC50/EC50 [2]	pIC50 [3]	Fh at 1.5 h, 1 µM [4] [%]	clearance [5] [L/h/kg]	hepatic bioavailability predicted from hepatocyte stability (Fh) at 1 µM [6] [%]	Fh at 1.5 h, 1 µM [7] [%]
C[C@@H]1CC(=O)NN=C1c1ccc(N2CCCCC2)cc1	8.76	8.35	27	126	6.66	–	–	–	–
C[C@@H]1OC(=O)NN=C1c1ccc(N2CCN(C)CC2)c(C(F)(F)F)c1	9.49	9.09	11	172	7.26	18	–	–	–
O=C1NN=C(c2ccc(N3CCC(F)(F)CC3)c(F)c2)CO1	8.81	8.41	84	178	–	19	5.5	82	–
C[C@@H]1CC(=O)NN=C1c1cc(F)c(N2CCOCC2)c(F)c1	9.01	8.68	90	4	8.40	–	–	–	–
C[C@@H]1OC(=O)NN=C1c1ccc(-c2cccc(F)c2)c(C(F)(F)F)c1	8.47	8.23	–	22	–	–	–	–	–
Cc1cc(-c2ccc(C3=NNC(=O)O[C@H]3C)cc2C(F)(F)F)ccn1	8.34	8.21	–	14	–	–	–	–	–
O=C1CCC(c2cc(Cl)c(N3CCOCC3)c(Cl)c2)=NN1	8.16	7.77	–	8.5	–	–	–	–	–
C[C@@H]1OC(=O)NN=C1c1ccc(N2CCOCC2)c(F)c1	8.74	8.59	90	23	7.37	–	–	–	–
O=C1NN=C(c2ccc(-c3ccc(F)cc3)c(F)c2)CO1	8.83	8.44	84	57	7.08	54	–	–	–
COc1ccc(-c2ccc(C3=NNC(=O)O[C@H]3C)cc2C(F)(F)F)cn1	7.65	7.40	–	4	–	–	–	–	–
O=C1NN=C(c2ccc(-c3ccc(F)cc3)c(OC(F)(F)F)c2)CO1	8.25	7.89	85	39	6.65	32	–	80	68
C[C@@H]1CC(=O)NN=C1c1ccc(N2CCOCC2)c(F)c1	9.17	8.86	94	18	7.90	–	–	–	–
O=C1NN=C(c2ccc(N3CCOCC3)c(F)c2)CO1	8.16	7.81	94	26	6.74	47	–	–	100
Cc1cc(C2=NNC(=O)OC2)ccc1-c1ccc(F)cc1	8.31	7.89	88	44	–	40	–	75	48
COc1ccc(-c2ccc(C3=NNC(=O)O[C@H]3C)cc2C(F)(F)F)cc1	7.66	7.42	–	4.1	–	–	–	–	–
C[C@@H]1CC(=O)NN=C1c1cc(F)c(N2CCOCC2)c(Cl)c1	9.46	9.05	58	5.5	8.72	–	–	–	–
C[C@@H]1OC(=O)NN=C1c1ccc(N2CCOCC2)c(C(F)(F)F)c1	9.47	9.11	84	18	8.20	–	–	–	–
C[C@@H]1OC(=O)NN=C1c1ccc(-c2ccnc(N)c2)c(C(F)(F)F)c1	9.16	8.84	83	109	7.12	36	2.52	31	56
Cc1ccc(-c2ccc(C3=NNC(=O)O[C@H]3C)cc2C(F)(F)F)cn1	8.36	8.20	–	8	–	–	–	–	–
C[C@@H]1OC(=O)NN=C1c1ccc(-c2ccc(Cl)cn2)c(C(F)(F)F)c1	7.95	9.60	78	>90	< 6.00	53	–	–	24
C[C@@H]1OC(=O)NN=C1c1ccc(-c2ccccc2F)c(C(F)(F)F)c1	8.09	7.82	–	18	–	–	–	–	–
O=C1NN=C(c2ccc(N3CCOCC3)c(C(F)(F)F)c2)CO1	8.73	8.47	83	12	7.64	–	–	–	–
O=C1NN=C(c2ccc(-c3ccc(F)cc3)c(C(F)(F)F)c2)CO1	8.60	8.10	84	112	–	38	0.35	70	44
C[C@@H]1OC(=O)NN=C1c1ccc(-c2ccncc2)c(C(F)(F)F)c1	9.22	8.96	93	112	7.17	41	–	–	–
Cc1ccncc1-c1ccc(C2=NNC(=O)O[C@H]2C)cc1C(F)(F)F	7.41	7.27	–	6	–	–	–	–	–
O=C1CCC(c2ccc(N3CCOCC3)cc2)=NN1	7.11	7.00	–	>12	< 6.00	–	–	–	–
C[C@@H]1OC(=O)NN=C1c1ccc(-c2ccc(O)cc2)c(C(F)(F)F)c1	9.17	8.94	–	38	7.58	–	–	–	–
O=C1NN=C(c2ccc(N3CCC(F)(F)CC3)c(C(F)(F)F)c2)CO1	8.80	8.30	67	–	–	37	–	–	28
O=C1CCC(c2ccc(N3CCOCC3)c(F)c2)=NN1	8.21	7.70	–	31	6.72	80	–	–	–
